Assay: xn = mol fraction of the nth substance listed

CCCC[n+]1ccn(C)c1.F[P-](F)(F)(F)(F)F + CC#N
298.15 K, 101 kPa
Details | electrical conductivity [S/m] | viscosity [mPa·s]
x2 = 0 | 0.157 | 260
x2 = 0.099 | 0.245 | 153
x2 = 0.1938 | 0.374 | 93
x2 = 0.1945 | – | 86
x2 = 0.2936 | 0.552 | 53.6
x2 = 0.3885 | 0.84 | 31.3
x2 = 0.4978 | 1.3 | 16.2
x2 = 0.5896 | 1.84 | 8.8
x2 = 0.6994 | 2.71 | 4.18
x2 = 0.7855 | 3.46 | 2.27
x2 = 0.846 | 3.93 | 1.48
x2 = 0.8918 | 4.18 | 1.08

CCCC[n+]1ccn(C)c1.O=S(=O)([N-]S(=O)(=O)C(F)(F)F)C(F)(F)F + CC#N
Details | electrical conductivity, x1 = 0.0063 [S/m] | electrical conductivity, x1 = 0.01076 [S/m] | electrical conductivity, x2 = 0.661 [S/m] | electrical conductivity, x2 = 0.905 [S/m] | viscosity, x2 = 0 [mPa·s] | viscosity, x2 = 0.1534 [mPa·s] | viscosity, x2 = 0.2508 [mPa·s] | viscosity, x2 = 0.602 [mPa·s] | viscosity, x2 = 0.7518 [mPa·s]
294.5 K, 100 kPa | – | 1.58 | – | – | – | – | – | – | –
298 K, 101 kPa | 1.14 | – | 2.25 | 4.42 | 50.4 | 34.4 | 25.4 | 6.4 | 2.73

CC[N+](CC)(CC)CC.F[B-](F)(F)F + CC#N
100 kPa
Details | electrical conductivity [S/m] | viscosity [mPa·s]
293.15 K, x1 = 0.004202 | – | 0.42
293.15 K, x1 = 0.008244 | – | 0.438
293.15 K, x1 = 0.01214 | – | 0.455
293.15 K, x1 = 0.0162 | – | 0.474
293.15 K, x1 = 0.02 | 2.88 | –
293.15 K, x1 = 0.0201 | – | 0.484
293.15 K, x1 = 0.02405 | – | 0.506
293.15 K, x1 = 0.02791 | – | 0.531
293.15 K, x1 = 0.0301 | 3.6 | –
293.15 K, x1 = 0.03183 | – | 0.55
293.15 K, x1 = 0.03568 | – | 0.573
293.15 K, x1 = 0.03943 | – | 0.593
293.15 K, x1 = 0.0499 | 4.6 | –
293.15 K, x1 = 0.0698 | 5.04 | –
293.15 K, x1 = 0.08 | 5.32 | –
293.15 K, x1 = 0.1 | 5.56 | –
293.15 K, x1 = 0.1101 | 5.58 | –
298.15 K, x1 = 0.004202 | – | 0.401
298.15 K, x1 = 0.008244 | – | 0.417
298.15 K, x1 = 0.01214 | – | 0.435
298.15 K, x1 = 0.0162 | – | 0.452
298.15 K, x1 = 0.02 | 2.99 | –
298.15 K, x1 = 0.0201 | – | 0.46
298.15 K, x1 = 0.02405 | – | 0.48
298.15 K, x1 = 0.02791 | – | 0.507
298.15 K, x1 = 0.0301 | 3.65 | –
298.15 K, x1 = 0.03183 | – | 0.525
298.15 K, x1 = 0.03568 | – | 0.546
298.15 K, x1 = 0.03943 | – | 0.566
298.15 K, x1 = 0.0499 | 4.78 | –
298.15 K, x1 = 0.0698 | 5.24 | –
298.15 K, x1 = 0.08 | 5.59 | –
298.15 K, x1 = 0.1 | 5.85 | –
298.15 K, x1 = 0.1101 | 5.88 | –
303.15 K, x1 = 0.004202 | – | 0.383
303.15 K, x1 = 0.008244 | – | 0.399
303.15 K, x1 = 0.01214 | – | 0.415
303.15 K, x1 = 0.0162 | – | 0.432
303.15 K, x1 = 0.02 | 3.11 | –
303.15 K, x1 = 0.0201 | – | 0.438
303.15 K, x1 = 0.02405 | – | 0.457
303.15 K, x1 = 0.02791 | – | 0.484
303.15 K, x1 = 0.0301 | 3.74 | –
303.15 K, x1 = 0.03183 | – | 0.501
303.15 K, x1 = 0.03568 | – | 0.521
303.15 K, x1 = 0.03943 | – | 0.541
303.15 K, x1 = 0.0499 | 4.98 | –
303.15 K, x1 = 0.0698 | 5.48 | –
303.15 K, x1 = 0.08 | 5.85 | –
303.15 K, x1 = 0.1 | 6.14 | –
303.15 K, x1 = 0.1101 | 6.18 | –
308.15 K, x1 = 0.004202 | – | 0.367
308.15 K, x1 = 0.008244 | – | 0.381
308.15 K, x1 = 0.01214 | – | 0.397
308.15 K, x1 = 0.0162 | – | 0.413
308.15 K, x1 = 0.02 | 3.22 | –
308.15 K, x1 = 0.0201 | – | 0.419
308.15 K, x1 = 0.02405 | – | 0.436
308.15 K, x1 = 0.02791 | – | 0.463
308.15 K, x1 = 0.0301 | 3.88 | –
308.15 K, x1 = 0.03183 | – | 0.478
308.15 K, x1 = 0.03568 | – | 0.497
308.15 K, x1 = 0.03943 | – | 0.517
308.15 K, x1 = 0.0499 | 5.18 | –
308.15 K, x1 = 0.0698 | 5.71 | –
308.15 K, x1 = 0.08 | 6.11 | –
308.15 K, x1 = 0.1 | 6.43 | –
308.15 K, x1 = 0.1101 | 6.48 | –
313.15 K, x1 = 0.004202 | – | 0.352
313.15 K, x1 = 0.008244 | – | 0.365
313.15 K, x1 = 0.01214 | – | 0.381
313.15 K, x1 = 0.0162 | – | 0.396
313.15 K, x1 = 0.02 | 3.33 | –
313.15 K, x1 = 0.0201 | – | 0.4
313.15 K, x1 = 0.02405 | – | 0.417
313.15 K, x1 = 0.02791 | – | 0.442
313.15 K, x1 = 0.0301 | 4.03 | –
313.15 K, x1 = 0.03183 | – | 0.457
313.15 K, x1 = 0.03568 | – | 0.474
313.15 K, x1 = 0.03943 | – | 0.494
313.15 K, x1 = 0.0499 | 5.38 | –
313.15 K, x1 = 0.0698 | 5.95 | –
313.15 K, x1 = 0.08 | 6.36 | –
313.15 K, x1 = 0.1 | 6.72 | –
313.15 K, x1 = 0.1101 | 6.78 | –
318.15 K, x1 = 0.004202 | – | 0.338
318.15 K, x1 = 0.008244 | – | 0.35
318.15 K, x1 = 0.01214 | – | 0.365
318.15 K, x1 = 0.0162 | – | 0.38
318.15 K, x1 = 0.02 | 3.44 | –
318.15 K, x1 = 0.0201 | – | 0.383
318.15 K, x1 = 0.02405 | – | 0.399
318.15 K, x1 = 0.02791 | – | 0.423
318.15 K, x1 = 0.0301 | 4.17 | –
318.15 K, x1 = 0.03183 | – | 0.437
318.15 K, x1 = 0.03568 | – | 0.454
318.15 K, x1 = 0.03943 | – | 0.474
318.15 K, x1 = 0.0499 | 5.58 | –
318.15 K, x1 = 0.0698 | 6.18 | –
318.15 K, x1 = 0.08 | 6.59 | –
318.15 K, x1 = 0.1 | 7.01 | –
318.15 K, x1 = 0.1101 | 7.08 | –
323.15 K, x1 = 0.004202 | – | 0.326
323.15 K, x1 = 0.008244 | – | 0.337
323.15 K, x1 = 0.01214 | – | 0.35
323.15 K, x1 = 0.0162 | – | 0.364
323.15 K, x1 = 0.02 | 3.54 | –
323.15 K, x1 = 0.0201 | – | 0.367
323.15 K, x1 = 0.02405 | – | 0.383
323.15 K, x1 = 0.02791 | – | 0.405
323.15 K, x1 = 0.0301 | 4.32 | –
323.15 K, x1 = 0.03183 | – | 0.418
323.15 K, x1 = 0.03568 | – | 0.435
323.15 K, x1 = 0.03943 | – | 0.455
323.15 K, x1 = 0.0499 | 5.77 | –
323.15 K, x1 = 0.0698 | 6.41 | –
323.15 K, x1 = 0.08 | 6.84 | –
323.15 K, x1 = 0.1 | 7.27 | –
323.15 K, x1 = 0.1101 | 7.38 | –
328.15 K, x1 = 0.02 | 3.65 | –
328.15 K, x1 = 0.0301 | 4.46 | –
328.15 K, x1 = 0.0499 | 5.96 | –
328.15 K, x1 = 0.0698 | 6.63 | –
328.15 K, x1 = 0.08 | 7.08 | –
328.15 K, x1 = 0.1 | 7.56 | –
328.15 K, x1 = 0.1101 | 7.68 | –
333.15 K, x1 = 0.02 | 3.75 | –
333.15 K, x1 = 0.0301 | 4.59 | –
333.15 K, x1 = 0.0499 | 6.15 | –
333.15 K, x1 = 0.0698 | 6.86 | –
333.15 K, x1 = 0.08 | 7.33 | –
333.15 K, x1 = 0.1 | 7.83 | –
333.15 K, x1 = 0.1101 | 8.01 | –
338.15 K, x1 = 0.02 | 3.85 | –
338.15 K, x1 = 0.0301 | 4.73 | –
338.15 K, x1 = 0.0499 | 6.34 | –
338.15 K, x1 = 0.0698 | 7.08 | –
338.15 K, x1 = 0.08 | 7.57 | –
338.15 K, x1 = 0.1 | 8.15 | –
338.15 K, x1 = 0.1101 | 8.28 | –
343.15 K, x1 = 0.02 | 3.95 | –
343.15 K, x1 = 0.0301 | 4.86 | –
343.15 K, x1 = 0.0499 | 6.52 | –
343.15 K, x1 = 0.0698 | 7.29 | –
343.15 K, x1 = 0.08 | 7.8 | –
343.15 K, x1 = 0.1 | 8.43 | –
343.15 K, x1 = 0.1101 | 8.57 | –
348.15 K, x1 = 0.02 | 4.04 | –
348.15 K, x1 = 0.0301 | 4.99 | –
348.15 K, x1 = 0.0499 | 6.7 | –
348.15 K, x1 = 0.0698 | 7.51 | –
348.15 K, x1 = 0.08 | 8.04 | –
348.15 K, x1 = 0.1 | 8.73 | –
348.15 K, x1 = 0.1101 | 8.84 | –

From the CheMixHub ionic liquid set
